The test system of data set [1] is naturally occurring PEX5 receptor. The experiment in a line: PEX5 (naturally occurring receptor) binding of orthogonal peptide (overall statement). The text has this: PEX5 is a modular protein: the C-terminal domain recognizes PTS1 within a funnel-shaped pocket created by 7 α-helical tetratricopeptide repeats (TPRs)[14], while the N-terminal domain of PEX5, which is natively unstructured, is responsible for the docking, cargo delivery, and recycling functions of the receptor[10]. […] The PEX5*-PTS1* pair was discovered by assessing the binding of a range of variants of the C-terminal domain of Arabidopsis thaliana PEX5 (AtPEX5C) with a library of pentapeptides (Fig. 1a). […] PTS1* has low affinity for the naturally occurring PEX5 receptor. Following optimization, the C-terminal PEX5* sequence was combined with the N-terminal domain of PEX5 from the moss Physcomitrella patens (Phypa PEX5N) to create a fully functional PEX5* receptor (Fig. 1a). Concomitant expression of PEX5* with a cargo protein bearing PTS1* results in targeting of the cargo to the peroxisome at the expense of naturally occurring peroxisomal components—a process that was easily visualized in moss cells using fluorescent reporter proteins (Fig. 1b).

For a further data set, the target named is AtPEX5 TPR domain. The following applies: cited from earlier work. The text has this: The pentapeptide library sequences were based on YQSKL, which has a nM affinity for the AtPEX5 TPR domain[17] and is widely used as a model PTS1 peptide. This sequence was randomized at the two C-terminal positions to create a library of sequences, YQSXX, where X represents any amino acid, which was efficiently prepared using split-and-pool solid-phase peptide synthesis. A dansyl fluorophore introduced at the N-terminus of the peptide added hydrophobicity to improve retention in LC-MS analysis. Deconvolution of Leu- and Ile-containing peptides was enabled by preparation of four sub-librari ...

The conditions of data set [2]: lissamine-labelled peptide, not pursued in FA assay.
The target in another data set is T1, AtPEX5C N601A (Arabidopsis thaliana, UniProt Q9FMA3 340-728, N601A).
T1 construct: Made by site-directed mutagenesis of His6-AtPEX5 (340-728) in pET-28b; also called N601A variant; source: E. coli BL21-Gold (DE3), purified (Co-NTA)
T1 sequence (looked up): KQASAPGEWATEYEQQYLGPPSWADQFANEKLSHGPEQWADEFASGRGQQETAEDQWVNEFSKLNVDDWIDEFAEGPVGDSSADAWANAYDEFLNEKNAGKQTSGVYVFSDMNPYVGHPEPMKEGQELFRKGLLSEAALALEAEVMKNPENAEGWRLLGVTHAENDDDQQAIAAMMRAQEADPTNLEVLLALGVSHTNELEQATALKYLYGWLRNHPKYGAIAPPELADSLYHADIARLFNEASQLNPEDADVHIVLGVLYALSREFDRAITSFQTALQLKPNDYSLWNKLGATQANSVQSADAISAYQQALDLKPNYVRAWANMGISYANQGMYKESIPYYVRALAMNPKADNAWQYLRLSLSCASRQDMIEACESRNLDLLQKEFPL
The experiment in a line: pull-down; His6-protein (12.5 µM) incubated with the combined dansyl-YQSXX library (500 nM each peptide) in 50 mM Na2HPO4, 300 mM NaCl, 10 mM 2-mercaptoethanol, 15% glycerol, pH 8.0, 4 °C, 1 h; captured on Co-NTA resin, washed, bound peptides eluted with 6 M urea and identified by ESI-LC-MS; semi-quantitative. The following applies: both partners purified.

Another data set has as its target T2, AtPEX5C D505H (Arabidopsis thaliana, UniProt Q9FMA3 340-728, D505H).
T2 construct: Made by site-directed mutagenesis of His6-AtPEX5 (340-728) in pET-28b; also called D505H variant of AtPEX5C; source: E. coli BL21-Gold (DE3), purified (Co-NTA)
T2 sequence (looked up): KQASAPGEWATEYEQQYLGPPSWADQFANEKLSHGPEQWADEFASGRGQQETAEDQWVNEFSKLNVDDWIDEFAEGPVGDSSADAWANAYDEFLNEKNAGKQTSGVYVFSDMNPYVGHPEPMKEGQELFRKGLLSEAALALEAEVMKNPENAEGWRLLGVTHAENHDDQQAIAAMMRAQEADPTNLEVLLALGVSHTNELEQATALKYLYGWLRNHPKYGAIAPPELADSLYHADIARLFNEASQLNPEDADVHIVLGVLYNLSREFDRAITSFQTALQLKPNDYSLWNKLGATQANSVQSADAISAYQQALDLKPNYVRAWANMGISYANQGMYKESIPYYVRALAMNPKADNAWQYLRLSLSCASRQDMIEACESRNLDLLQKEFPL
The description is as above. The following applies: both partners purified.

The star is where a group is joined. Dansyl = CN(C)c1cccc2c(S(=O)(=O)*)cccc12

Consider “WWRDPYSPMYQSYY [PTS1*, YQSYY including enhancing upstream residues]”, for which, in data set [1], the “affinity for naturally occurring PEX5 receptor” value is recorded as “low affinity”.
For YQSKL [model PTS1 peptide], the “affinity for AtPEX5 TPR domain” value on AtPEX5 TPR domain was “nM affinity”.
Turning to lissamine-labelled YQSFY, the solubility entry in data set [2] is reported as “poor solubility”.

B1: dansyl-YQSFY (peptide)
peptide: Dansyl-YQSFY-OH
SMILES: CN(C)c1cccc2c(S(=O)(=O)N[C@@H](Cc3ccc(O)cc3)C(=O)N[C@@H](CCC(N)=O)C(=O)N[C@@H](CO)C(=O)N[C@@H](Cc3ccccc3)C(=O)N[C@@H](Cc3ccc(O)cc3)C(=O)O)cccc12
notes: member of the YQSXX pentapeptide library; Tested within the combined library of 324 peptides, not alone; source: synthetic peptide, member of the split-and-pool dansyl-YQSXX library
On to B1, for which the binding result with AtPEX5C N601A and with AtPEX5C D505H was “binds” each time.

The record behind these values is article PMC5587766, “Towards designer organelles by subverting the peroxisomal import pathway” (Nature Communications, 2017).
